Values belong to the compound of their own block, whether it stands above or below them.
Key:
[1] = Cmax in CB17SCID mouse at 125 mg/kg, po and measured upto 24 hrs; assay type: ADME, organism-based; design: dose 125 mg/kg, time < 24 hrs, route po; conditions: in vivo
[2] = AUC in CB17SCID mouse at 125 mg/kg, po and measured upto 24 hrs; assay type: ADME, organism-based; design: dose 125 mg/kg, time < 24 hrs, route po; conditions: in vivo
[3] = target: Tumour suppressor p53/oncoprotein Mdm2 (Homo sapiens, UniProt Q00987); test: Inhibition of recombinant human MDM2/p53 interaction; assay type: protein assay
IMR-5 = test: Antiproliferative activity against human IMR-5 cells harboring wildtype TP53 assessed as reduction in cell viability and measured upto 72 hrs by XTT assay; assay type: functional, cell-based; conditions: IMR-5, 72 h
IMR-32 = test: Antiproliferative activity against human IMR-32 cells harboring wildtype TP53 assessed as reduction in cell viability and measured upto 72 hrs by XTT assay; assay type: functional, cell-based; conditions: IMR-32, 72 h
SH-SY5Y = test: Antiproliferative activity against human SH-SY5Y cells harboring wildtype TP53 assessed as reduction in cell viability and measured upto 72 hrs by XTT assay; assay type: functional, cell-based
SK-N-SH = test: Antiproliferative activity against human SK-N-SH cells harboring wildtype TP53 assessed as reduction in cell viability and measured upto 72 hrs by XTT assay; assay type: functional, cell-based
[4] = Antiproliferative activity against human LA-N-5 cells harboring wildtype TP53 assessed as reduction in cell viability and measured upto 72 hrs by XTT assay; assay type: functional, cell-based; conditions: LA-N-5, 72 h
[5] = Antiproliferative activity against human Kelly cells harboring TP53 mutant assessed as reduction in cell viability and measured upto 72 hrs by XTT assay; assay type: functional, cell-based
[6] = Oral bioavailability in Sprague-Dawley rat at 2 mg/kg by LC-MS/MS method; assay type: ADME, organism-based; conditions: in vivo
[7] = Oral bioavailability in CD-1 mouse at 5 mg/kg by LC-MS/MS method; assay type: ADME, organism-based; conditions: in vivo
[8] = Oral bioavailability in cynomolgus monkey at 2 mg/kg by LC-MS/MS method; assay type: ADME, organism-based, Macaca fascicularis; conditions: in vivo
[9] = Oral bioavailability in Beagle dog at 2 mg/kg by LC-MS/MS method; assay type: ADME, organism-based, Canis lupus familiaris; conditions: in vivo
SJSA-1 = test: animal or person; conditions: Mus musculus, SJSA-1, po, read-out: TGI
Description: Antitumor activity against human SJSA-1 xenografted Balb/c mouse assessed as tumor growth inhibition at 50 mg/kg,po administered daily by caliper method

animal or person = conditions: Homo sapiens, MHM, po, read-out: TGI
Description: Antitumor activity against human MHM xenografted Balb/c mouse assessed as tumor growth inhibition at 50 mg/kg,po administered daily by caliper method

Sequence of Tumour suppressor p53/oncoprotein Mdm2 (P04637 whole entry): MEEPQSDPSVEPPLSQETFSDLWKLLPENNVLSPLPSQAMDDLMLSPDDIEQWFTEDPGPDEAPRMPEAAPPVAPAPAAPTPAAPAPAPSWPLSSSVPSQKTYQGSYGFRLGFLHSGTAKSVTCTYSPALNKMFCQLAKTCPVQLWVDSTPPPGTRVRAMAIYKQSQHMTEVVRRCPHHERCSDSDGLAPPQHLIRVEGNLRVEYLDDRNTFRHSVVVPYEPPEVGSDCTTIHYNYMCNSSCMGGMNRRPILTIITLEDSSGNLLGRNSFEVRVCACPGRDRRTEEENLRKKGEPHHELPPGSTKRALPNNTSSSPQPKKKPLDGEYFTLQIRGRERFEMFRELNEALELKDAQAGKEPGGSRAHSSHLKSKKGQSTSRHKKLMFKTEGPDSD
Sequence of Tumour suppressor p53/oncoprotein Mdm2 (Q00987 whole entry): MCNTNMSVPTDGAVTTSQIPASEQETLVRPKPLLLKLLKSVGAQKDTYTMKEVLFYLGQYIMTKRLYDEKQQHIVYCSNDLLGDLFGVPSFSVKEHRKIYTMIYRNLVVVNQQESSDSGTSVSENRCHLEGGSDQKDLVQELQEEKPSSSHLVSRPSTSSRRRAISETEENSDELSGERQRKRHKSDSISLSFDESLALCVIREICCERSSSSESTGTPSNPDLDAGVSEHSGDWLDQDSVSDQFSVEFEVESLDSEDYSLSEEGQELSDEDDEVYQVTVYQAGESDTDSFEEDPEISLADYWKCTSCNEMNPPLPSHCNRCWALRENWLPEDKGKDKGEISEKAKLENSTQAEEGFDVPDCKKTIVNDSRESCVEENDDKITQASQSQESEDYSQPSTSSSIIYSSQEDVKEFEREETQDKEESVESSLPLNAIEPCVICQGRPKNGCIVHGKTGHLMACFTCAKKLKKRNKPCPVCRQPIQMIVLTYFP

- IC50 [3]: 0.13 nM
Structure (SMILES): COc1ccccc1-n1nc2c(c1C(C)C)[C@H](c1ccc(Cl)cc1C)N(c1cc(Cl)cc(OCCN(C)C)c1)C2=O

- bioavailability [6]: > 42%
- bioavailability [7]: > 43%
- bioavailability [8]: > 44%
- bioavailability [9]: 18%
Structure (SMILES): CC(C)[C@@H](CS(=O)(=O)C(C)C)N1C(=O)[C@@](C)(CC(=O)O)C[C@H](c2cccc(Cl)c2)[C@H]1c1ccc(Cl)cc1 [NAVTEMADLIN]

The remaining lines, values behind:

Structure (SMILES): CCC[C@H]1N(C(=O)c2ncccc2C(F)(F)F)CCC[C@@]1(Oc1csc(C(F)(F)F)c1)C(=O)N1CCC(O)(c2ccccc2O[C@H](C)CCC2(C(=O)O)CCC2)CC1
- Cmax [1]: 40 µM
- AUC at 24 h [2]: 200 µM·h

Structure (SMILES): CC1(C)CCC2(CC1)N[C@H](C(=O)N[C@@H]1CC[C@@H](C(N)=O)OC1)[C@H](c1ccnc(Cl)c1F)[C@]21C(=O)Nc2cc(Cl)ccc21
- IC50 (IMR-5): 25.7 nM
- IC50 (IMR-32): 56.2 nM
- IC50 (SH-SY5Y): 17.7 nM
- IC50 (SK-N-SH): 21.9 nM
- IC50 [4]: 44.1 nM
- IC50 [5]: > 2000 nM

Structure (SMILES): CCOc1cc(C(C)(C)C)ccc1C1=N[C@@](C)(c2ccc(Cl)cc2)[C@@](C)(c2ccc(Cl)cc2)N1C(=O)N1CCN(CCCS(C)(=O)=O)CC1 [RO-5045337]
- inhibition in vivo at 50 mg/kg (SJSA-1): 74%
- inhibition in vivo at 50 mg/kg (animal or person): 69%
